How the values were obtained:
Phytophthora infestans = test: whole plant or invertebrate; assay type: in vivo; conditions: for Test F control value class: class of control value
Magnaporthe grisea = test: whole plant or invertebrate; assay type: in vivo; conditions: for Test A control value class: class of control value
Alternaia brassicicola = test: Test Example C: Alternaria sooty spot on cabbage; assay type: in vivo; conditions: for Test C control value class: class of control value
Description: Seeds of a test plant (cabbage variety: Shikidori) were planted and cultivated until the cotyledons extended.
<Control Value> Control value=100{1−(n/3)}

Botrytis cinerea = test: Test Example B: Gray mold on tomato; conditions: for Test B control value class: class of control value
[1] = system: Colletotrichum orbiculare; test: Test Example H: Anthracnose on cucumber; conditions: for Test H control value: 6 to 10 days after inoculation; for Test H control value class: Anthracnose on cucumber (Sagami Hanjiro), 2.5 ml/pot, assessed 6 to 10 days after inoculation
[2] = system: Blumeria graminis f. sp. hordei; test: Test Example D: Powdery mildew on barley; conditions: for Test D control value class: class of control value
Plasmopara viticola = test: Test Example G: Downy mildew on vine; conditions: for Test G control value: 7 to 10 days after inoculation; for Test G control value class: Downy mildew on vine (Neomuscat), 2.5 ml/pot, assessed 7 to 10 days after inoculation
Puccinia recondita = test: Test Example E: Brown rust on wheat; assay type: in vivo; conditions: for Test E control value class: class of control value
[3] = Late blight on tomato, control value class
[4] = Blast on rice, control value class
[5] = Alternaria sooty spot on cabbage, control value class
[6] = Gray mold on tomato, control value class
[7] = Anthracnose on cucumber, 250 ppm spray
[8] = Powdery mildew on barley, control value class
[9] = Downy mildew on vine, 250 ppm spray
[10] = Brown rust on wheat, control value class
[11] = Alternaria sooty spot on cabbage
[12] = 250 ppm drug solution sprayed on test plant
[13] = 250 ppm drug solution sprayed (2.5 ml/pot), cucumber Sagami Hanjiro
[14] = 250 ppm drug solution sprayed (2.5 ml/pot), grape Neomuscat

| SMILES | Test F control value class (Phytophthora infestans; Late blight on tomato) | Test A control value class (Magnaporthe grisea; Blast on rice) | Test C control value class (Alternaia brassicicola; [11]) | Test B control value class (Botrytis cinerea; Gray mold on tomato) | Test H control value class ([1]; 250 ppm spray) | Test D control value class ([2]; Powdery mildew on barley) | Test G control value class (Plasmopara viticola; 250 ppm spray) | Test E control value class (Puccinia recondita; Brown rust on wheat) | Test F control value (Phytophthora infestans; [12]) | Test A control value (Magnaporthe grisea; [12]) | Test C control value (Alternaia brassicicola; [12]) | Test B control value (Botrytis cinerea; [12]) | Test H control value [1, 13] | Test D control value [2, 12] | Test G control value (Plasmopara viticola; [14]) | Test E control value (Puccinia recondita; [12]) | also measured |
| --- | --- | --- | --- | --- | --- | --- | --- | --- | --- | --- | --- | --- | --- | --- | --- | --- | --- |
| CCn1c(-c2ccc(F)cc2)c(C(=O)C(C)C)cc(Cl)c1=O [compound 212] | – | – | – | – | – | – | – | – | – | – | – | – | – | – | – | – | Test F control value (Phytophthora infestans; [3]): L (50% or less control value); Test A control value (Magnaporthe grisea; [4]): L (50% or less control value); Test C control value (Alternaia brassicicola; [5]): H (more than 50% control value); Test B control value (Botrytis cinerea; [6]): H (more than 50% control value); Test H control value [1, 7]: L (50% or less control value); Test D control value [2, 8]: H (more than 50% control value); Test G control value (Plasmopara viticola; [9]): L (50% or less control value); Test E control value (Puccinia recondita; [10]): H (more than 50% control value) |
| CCn1c(-c2c(F)cccc2OCOC)c(CC(C)C)cc(Cl)c1=O [compound 103] | L (50% or less control value) | H (more than 50% control value) | H (more than 50% control value) | H (more than 50% control value) | H (more than 50% control value) | H (more than 50% control value) | H (more than 50% control value) | H (more than 50% control value) | – | – | – | – | – | – | – | – | – |
| CCCc1cc(Br)c(=O)n(CC)c1-c1ccc(F)cc1Cl [compound 192] | – | – | – | – | – | – | – | – | – | – | – | – | – | – | – | – | Test F control value (Phytophthora infestans; [3]): L (50% or less control value); Test A control value (Magnaporthe grisea; [4]): H (more than 50% control value); Test C control value (Alternaia brassicicola; [5]): H (more than 50% control value); Test B control value (Botrytis cinerea; [6]): H (more than 50% control value); Test H control value [1, 7]: H (more than 50% control value); Test D control value [2, 8]: H (more than 50% control value); Test G control value (Plasmopara viticola; [9]): L (50% or less control value); Test E control value (Puccinia recondita; [10]): H (more than 50% control value) |
| CCCc1cc(Cl)c(=O)n(CC(F)F)c1-c1c(F)cccc1F [compound 492] | – | – | – | – | – | – | – | – | L (50% or less control value) | H (more than 50% control value) | H (more than 50% control value) | H (more than 50% control value) | H (more than 50% control value) | H (more than 50% control value) | H (more than 50% control value) | H (more than 50% control value) | – |
| CCn1c(-c2ccc(C)cc2F)c(CC(C)C)cc(Br)c1=O [compound 147] | L (50% or less control value) | H (more than 50% control value) | H (more than 50% control value) | H (more than 50% control value) | L (50% or less control value) | H (more than 50% control value) | H (more than 50% control value) | H (more than 50% control value) | – | – | – | – | – | – | – | – | – |
| CCn1c(-c2c(F)cc(OC)cc2F)c(C(=O)C(C)(C)C)cc(Cl)c1=O [compound 179] | L (50% or less control value) | H (more than 50% control value) | H (more than 50% control value) | H (more than 50% control value) | H (more than 50% control value) | H (more than 50% control value) | L (50% or less control value) | H (more than 50% control value) | – | – | – | – | – | – | – | – | – |
| CCn1c(-c2ccc(OCSC)cc2F)c(CC(C)C)cc(Cl)c1=O [compound 128] | L (50% or less control value) | H (more than 50% control value) | H (more than 50% control value) | H (more than 50% control value) | H (more than 50% control value) | H (more than 50% control value) | H (more than 50% control value) | H (more than 50% control value) | – | – | – | – | – | – | – | – | – |
| CCCc1cc(Br)c(=O)n(CC)c1-c1c(F)cc(F)cc1F [compound 389] | – | – | – | – | – | – | – | – | L (50% or less control value) | H (more than 50% control value) | H (more than 50% control value) | H (more than 50% control value) | H (more than 50% control value) | H (more than 50% control value) | L (50% or less control value) | H (more than 50% control value) | – |
| CCCc1cc(Br)c(=O)n(C)c1-c1ccc(OC)cc1Br [compound 418] | – | – | – | – | – | – | – | – | H (more than 50% control value) | L (50% or less control value) | H (more than 50% control value) | H (more than 50% control value) | H (more than 50% control value) | L (50% or less control value) | L (50% or less control value) | H (more than 50% control value) | – |
| CCn1c(-c2ccc(F)cc2F)c(CC(C)C)cc(Cl)c1=O [compound 119] | L (50% or less control value) | H (more than 50% control value) | H (more than 50% control value) | H (more than 50% control value) | H (more than 50% control value) | H (more than 50% control value) | H (more than 50% control value) | H (more than 50% control value) | – | – | – | – | – | – | – | – | – |
| CCc1cc(Cl)c(=O)n(C)c1-c1ccc(OC)cc1C [compound 374] | – | – | – | – | – | – | – | – | L (50% or less control value) | L (50% or less control value) | H (more than 50% control value) | H (more than 50% control value) | L (50% or less control value) | H (more than 50% control value) | L (50% or less control value) | H (more than 50% control value) | – |
| Cc1cc(Cl)c(=O)n(C)c1-c1c(F)cccc1F [compound 4] | H (more than 50% control value) | H (more than 50% control value) | H (more than 50% control value) | L (50% or less control value) | L (50% or less control value) | L (50% or less control value) | L (50% or less control value) | L (50% or less control value) | – | – | – | – | – | – | – | – | – |
| CCCc1cc(Cl)c(=O)n(CC)c1-c1c(F)cccc1F [compound 428] | – | – | – | – | – | – | – | – | L (50% or less control value) | H (more than 50% control value) | H (more than 50% control value) | H (more than 50% control value) | H (more than 50% control value) | H (more than 50% control value) | H (more than 50% control value) | H (more than 50% control value) | – |
| CCc1ccc(=O)n(CC)c1-c1ccc(OC)cc1Cl [compound 319] | – | – | – | – | – | – | – | – | – | – | – | – | – | – | – | – | Test F control value (Phytophthora infestans; [3]): L (50% or less control value); Test A control value (Magnaporthe grisea; [4]): L (50% or less control value); Test C control value (Alternaia brassicicola; [5]): H (more than 50% control value); Test B control value (Botrytis cinerea; [6]): H (more than 50% control value); Test H control value [1, 7]: H (more than 50% control value); Test D control value [2, 8]: H (more than 50% control value); Test G control value (Plasmopara viticola; [9]): L (50% or less control value); Test E control value (Puccinia recondita; [10]): H (more than 50% control value) |
| CCc1cc(Cl)c(=O)n(CC)c1-c1ccc(OC)cc1C [compound 355] | – | – | – | – | – | – | – | – | – | – | – | – | – | – | – | – | Test F control value (Phytophthora infestans; [3]): L (50% or less control value); Test A control value (Magnaporthe grisea; [4]): H (more than 50% control value); Test C control value (Alternaia brassicicola; [5]): H (more than 50% control value); Test B control value (Botrytis cinerea; [6]): H (more than 50% control value); Test H control value [1, 7]: H (more than 50% control value); Test D control value [2, 8]: H (more than 50% control value); Test G control value (Plasmopara viticola; [9]): L (50% or less control value); Test E control value (Puccinia recondita; [10]): H (more than 50% control value) |
| CCn1c(-c2ccc(F)cc2Cl)c(C2CCCCC2)cc(Br)c1=O [compound 182] | L (50% or less control value) | H (more than 50% control value) | H (more than 50% control value) | H (more than 50% control value) | L (50% or less control value) | H (more than 50% control value) | L (50% or less control value) | H (more than 50% control value) | – | – | – | – | – | – | – | – | – |

— patent US11147272B2, “Pyridone compounds and agricultural and horticultural fungicides comprising the same as active ingredients” (MITSUI CHEMICALS AGRO, INC., priority 2017, dated 2021)
